# In patent US5618537A, “Plant-based medicaments for increasing the tone and modulating the tone of the smooth muscular organ” (Steigerwald Arzneimittelwerk GmbH, priority 1991, dated 1997):
# How the values were obtained:
# guinea-pig ileum = assay: Increase in basal tone of resting isolated guinea-pig ileum (Magnus model); set-up: unit not given here; conditions: 40 μg/l; for Contraction induced by acetylcholine, Average value: average of 6
# carrageenan oedema = assay: Carrageenan oedema model of the rat (paw volume, plethysmometer); format: in vivo; conditions: 4 mg/kg of body wt., 1/2 h before induction
# Protocol: The carrageenan oedema model of the rat is an internationally recognised pharmacological method for uncovering clinically relevant anti-inflammatory agents.
# The test substances were administered 1/2 h before induction of oedema; the control animals received the solvent (30% ethanol). The paw volume was measured with a plethysmometer before (0 value) oedema induction and 1, 2, 3, 4 and 6 hours after.
# The anti-inflammatory action of the test substances was calculated according to the formula [formula] V=average value of the differences from the 0 value: drug group K=average value of the differences from the 0 value; control group
Structure (SMILES),"Contraction induced by acetylcholine (comparison for increase in basal tone) (guinea-pig ileum; Table 2 series (STW 5-II), Expt. 1)","Contraction induced by acetylcholine (comparison for increase in basal tone) (guinea-pig ileum; Table 2 series (STW 5-II), Expt. 2)","Contraction induced by acetylcholine (comparison for increase in basal tone) (guinea-pig ileum; Table 2 series (STW 5-II), Expt. 3)","Contraction induced by acetylcholine (comparison for increase in basal tone) (guinea-pig ileum; Table 2 series (STW 5-II), Expt. 4)","Contraction induced by acetylcholine (comparison for increase in basal tone) (guinea-pig ileum; Table 2 series (STW 5-II), Expt. 5)","Contraction induced by acetylcholine (comparison for increase in basal tone) (guinea-pig ileum; Table 2 series (STW 5-II), Expt. 6)","Contraction induced by acetylcholine, Average value (guinea-pig ileum; Table 2 series (STW 5-II))","Contraction induced by acetylcholine (comparison for increase in basal tone) (guinea-pig ileum; Table 3 series (STW 5), Expt. 1)","Contraction induced by acetylcholine (comparison for increase in basal tone) (guinea-pig ileum; Table 3 series (STW 5), Expt. 2)","Contraction induced by acetylcholine (comparison for increase in basal tone) (guinea-pig ileum; Table 3 series (STW 5), Expt. 3)","Contraction induced by acetylcholine (comparison for increase in basal tone) (guinea-pig ileum; Table 3 series (STW 5), Expt. 4)","Contraction induced by acetylcholine (comparison for increase in basal tone) (guinea-pig ileum; Table 3 series (STW 5), Expt. 5)","Contraction induced by acetylcholine (comparison for increase in basal tone) (guinea-pig ileum; Table 3 series (STW 5), Expt. 6)","Contraction induced by acetylcholine, Average value (guinea-pig ileum; Table 3 series (STW 5))",% inhibition of carrageenan oedema (carrageenan oedema; 1 h after oedema induction) [%],% inhibition of carrageenan oedema (carrageenan oedema; 2 h after oedema induction) [%],% inhibition of carrageenan oedema (carrageenan oedema; 3 h after oedema induction) [%],% inhibition of carrageenan oedema (carrageenan oedema; 4 h after oedema induction) [%],% inhibition of carrageenan oedema (carrageenan oedema; 6 h after oedema induction) [%]
"CC(=O)OCC[N+](C)(C)C [Acetylch., acetylcholine]",10.1,14.6,11.7,14.0,12.7,8.6,11.95,11.8,6.3,12.1,9.9,12.2,5.9,9.70,–,–,–,–,–
COc1ccc2c(c1)c(CC(=O)O)c(C)n2C(=O)c1ccc(Cl)cc1 [Indomethacin],–,–,–,–,–,–,–,–,–,–,–,–,–,–,24.0,23.5,35.0,47.5,61.3
